Format in all cases: functional, cell-based
Assay [1] has as its target T1, P2Y purinoceptor 2 (Homo sapiens, UniProt P41231). In words: Agonist activity at human P2Y2 receptor expressed in human 1321N1 cells coexpressing phospholipase C-activating G protein assessed as inositol phosphate production at 10 uM by scintillation proximity assay. In general terms: Scintillation proximity formats need no separation of bound from free tracer.
Assay [2] addresses T1, P2Y purinoceptor 2. In words: Agonist activity at human P2Y2 receptor expressed in human 1321N1 cells coexpressing phospholipase C-activating G protein assessed as inositol phosphate production by scintillation proximity assay.
The target in assay [3] is P2Y purinoceptor 4 (Homo sapiens) (UniProt P51582). Description: Agonist activity at human P2Y4 receptor expressed in human 1321N1 cells coexpressing phospholipase C-activating G protein assessed as inositol phosphate production at 10 uM by scintillation proximity assay.
Assay [4] addresses T2, P2Y purinoceptor 6 (Homo sapiens, UniProt Q15077). In words: Agonist activity at human P2Y6 receptor expressed in human 1321N1 cells coexpressing phospholipase C-activating G protein assessed as inositol phosphate production by scintillation proximity assay.
For assay [5], the target named is T1, P2Y purinoceptor 2. Description: Agonist activity at human P2Y2 receptor expressed in human 1321N1 cells coexpressing phospholipase C-activating G protein assessed as inositol phosphate production by scintillation proximity assay relative to UTP.
In assay [6] the target is T2, P2Y purinoceptor 6. Description: Agonist activity at human P2Y6 receptor expressed in human 1321N1 cells coexpressing phospholipase C-activating G protein assessed as inositol phosphate production at 10 uM by scintillation proximity assay.

pEC50: −log10 of the molar value. Some results are limits rather than exact numbers.

T1 sequence (P41231 whole entry): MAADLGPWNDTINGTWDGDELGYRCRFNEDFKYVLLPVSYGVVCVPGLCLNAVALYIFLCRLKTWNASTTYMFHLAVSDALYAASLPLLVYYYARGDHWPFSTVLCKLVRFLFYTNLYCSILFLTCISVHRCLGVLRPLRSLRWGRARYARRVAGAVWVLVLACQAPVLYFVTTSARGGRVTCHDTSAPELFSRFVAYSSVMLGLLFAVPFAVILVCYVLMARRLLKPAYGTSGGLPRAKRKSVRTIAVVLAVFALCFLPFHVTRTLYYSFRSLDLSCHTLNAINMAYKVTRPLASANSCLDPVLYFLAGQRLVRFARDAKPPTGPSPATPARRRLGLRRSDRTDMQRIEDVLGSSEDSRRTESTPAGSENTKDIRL
T2 sequence (Q15077 whole entry): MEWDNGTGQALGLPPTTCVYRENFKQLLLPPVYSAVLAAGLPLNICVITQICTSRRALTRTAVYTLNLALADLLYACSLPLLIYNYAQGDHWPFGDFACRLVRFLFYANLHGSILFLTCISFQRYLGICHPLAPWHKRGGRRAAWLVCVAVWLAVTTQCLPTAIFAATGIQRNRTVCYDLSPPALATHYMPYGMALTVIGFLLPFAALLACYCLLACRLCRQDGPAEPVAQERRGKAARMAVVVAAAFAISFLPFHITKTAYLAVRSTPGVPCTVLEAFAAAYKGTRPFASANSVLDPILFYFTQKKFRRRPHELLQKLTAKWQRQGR
P2Y purinoceptor 4 (Homo sapiens), sequence (P51582 whole entry): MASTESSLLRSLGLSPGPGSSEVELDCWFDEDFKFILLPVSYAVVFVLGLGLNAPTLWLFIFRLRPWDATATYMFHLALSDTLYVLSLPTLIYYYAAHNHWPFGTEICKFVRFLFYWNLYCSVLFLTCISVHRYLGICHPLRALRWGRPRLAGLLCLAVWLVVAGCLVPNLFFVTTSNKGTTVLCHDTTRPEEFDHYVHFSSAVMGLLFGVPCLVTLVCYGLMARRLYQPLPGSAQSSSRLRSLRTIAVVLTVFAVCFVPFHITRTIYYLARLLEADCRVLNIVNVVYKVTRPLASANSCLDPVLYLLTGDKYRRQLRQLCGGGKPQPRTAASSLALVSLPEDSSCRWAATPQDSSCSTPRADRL

As to `O=c1ccn([C@@H]2O[C@H](COP(=O)(O)OP(=O)(O)C[C@H]3O[C@@H](n4ccc(=O)[nH]c4=O)[C@H](O)[C@@H]3O)[C@@H](O)[C@H]2O)c(=O)[nH]1`, the Emax – broadly, the maximal effect, on the per cent scale that the assay sets – on P2Y purinoceptor 2 [1] was less than 50%.

On to `O=c1ccn([C@@H]2O[C@H](/C=C/P(=O)(O)OP(=O)(O)OP(=O)(O)O)[C@@H](O)[C@H]2O)c(=O)[nH]1`, for which the negative-log EC50 (pEC50) (as a rule, −log10 of the EC50, conventionally taken in molar units) on P2Y purinoceptor 2 [2] is 6.00. Moreover, the Emax in assay [3] is less than 50%.

As for `Nc1ncnc2c1ncn2[C@@H]1O[C@H](CP(=O)(O)OP(=O)(O)OP(=O)(O)O)[C@@H](O)[C@H]1O`, the pEC50 on P2Y purinoceptor 2 [2] was 5.85. Moreover, the Emax in assay [3] was less than 50%.

Take `O=c1ccn([C@@H]2O[C@H](CP(=O)(O)OP(=O)(O)O)[C@@H](O)[C@H]2O)c(=O)[nH]1`: the negative logarithm of the EC50 (pEC50) on P2Y purinoceptor 2 [2] is 5.47; at P2Y purinoceptor 6 [4], 5.72. On P2Y purinoceptor 2 [5], the Activity was determined as 50%.

As for `O=c1ccn([C@@H]2O[C@H](CP(=O)(O)OP(=O)(O)OP(=O)(O)O)[C@@H](O)[C@H]2O)c(=O)[nH]1`, the pEC50 at P2Y purinoceptor 2 [2] was 5.07.

Take `O=c1ccn([C@@H]2O[C@H](CCP(=O)(O)O)[C@@H](O)[C@H]2O)c(=O)[nH]1`: the pEC50 at P2Y purinoceptor 2 [2] is 5.80. The Activity at P2Y purinoceptor 2 [5] was less than 50%.

Consider `O=c1ccn([C@@H]2O[C@H](COP(=O)(O)OP(=O)(O)OP(=O)(O)O)[C@@H](O)[C@H]2O)c(=O)[nH]1`, for which the EC50 (in general, the concentration giving half of the maximal effect) on P2Y purinoceptor 6 [6] was more than 10 µM.
